Data as given in patent US20260028364A1, “CATIONIC CHROMENONES AND THEIR USE IN ONCOLOGY” (FLORATEK PHARMA S.A., priority 2022, published 2026).

Experiments:
MCF-7 = assay: CellTiter-Glo cell viability, MCF-7; format: cell-based; conditions: MCF-7 cells, 72 h with compound
Method: (§1) Antitumor activity against a panel of cancer cell lines Antitumor activity of the compounds was assessed by using the CellTiter-Glow® Luminescent Cell Viability assay (Promega #G7572) according to the manufacturer's instructions. The compounds were tested at 5 or 6 concentrations in 1:2 dilution increments (highest concentration 10 µM) in triplicate well conditions.
(§2) Tumor cells were grown at 37° C. in a humidified atmosphere with 5% CO2 in RPMI 1640 or DMEM medium, supplemented with 10% (v/v) fetal calf serum and 50 μg/ml gentamicin for up to 20 passages, and were passaged once or twice weekly. Cells were harvested using TrypLE or PBS buffer containing 1 mM EDTA, and the percentage of viable cells is determined using a cell counter.
(§3) Cells were harvested from exponential phase cultures, counted and plated in 96 well flat-bottom microtiter plates at a cell density depending on the cell line's growth rate (4,000-20,000 cells/well depending on the cell line's growth rate) in RPMI 1640 or DMEM medium supplemented with 10% (v/v) fetal calf serum and 50 μg/ml gentamicin (140 μl/well). Cultures were incubated at 37° C. and 5% CO2 in a humidified atmosphere. After 24 h, 10 μl of test compounds or control medium are added, and left on the cells for another 72 h. Compounds were serially diluted in DMSO, transferred in cell culture medium, and added to the assay plates. The DMSO concentration was kept constant at <0.2% v/v across the assay plate. Viability of cells was quantified by the CellTiter-Glow® Luminescent Cell Viability assay (Promega #G7572). Luminescence was measured with the microplate luminometer (En Vision Perkin Elmer).
(§4) Sigmoidal concentration-response curves were fitted to the data points (test-versus-control, T/C values) obtained for each tumor model using Graph Pad prism 5.02 software. IC50 values are reported as absolute IC50 values, being the concentration of test compound at the intersection of the concentration-response curves with T/C=50%.

NCI-H1299 = assay: CellTiter-Glo cell viability, NCI-H1299; format: cell-based; conditions: H1299 cells, 72 h with compound
Method: as §1, §2, §3, §4

HCC-15 = assay: CellTiter-Glo cell viability, HCC-15; format: cell-based; conditions: HCC-15 cells, 72 h with compound
Method: as §1, §2, §3, §4

MIA-PaCa-2 = assay: CellTiter-Glo cell viability, MIA-PaCa-2; format: cell-based; conditions: MIA-PaCa-2 cells, 72 h with compound
Method: as §1, §2, §3, §4

A-673 = assay: CellTiter-Glo cell viability, A-673; format: cell-based; conditions: A-673 cells, 72 h with compound
Method: as §1, §2, §3, §4

SK-Mel-5 = assay: CellTiter-Glo cell viability, SK-Mel-5; format: cell-based; conditions: SK-Mel-5 cells, 72 h with compound
Method: as §1, §2, §3, §4

U87MG = assay: CellTiter-Glo cell viability, U87MG; format: cell-based; conditions: U87MG cells, 72 h with compound
Method: as §1, §2, §3, §4

A375 = assay: CellTiter-Glo cell viability, A375; format: cell-based; conditions: A375 cells, 72 h with compound
Method: as §1, §2, §3, §4

SK-N-SH = assay: CellTiter-Glo cell viability, SK-N-SH; format: cell-based; conditions: SK-N-SH cells, 72 h with compound
Method: as §1, §2, §3, §4

H69 = assay: CellTiter-Glo cell viability, H69; format: cell-based; conditions: H69 cells, 72 h with compound
Method: as §1, §2, §3, §4

BxPC-3 = assay: CellTiter-Glo cell viability, BxPC-3; format: cell-based; conditions: BxPC-3 cells, 72 h with compound
Method: as §1, §2, §3, §4

22Rv1 = assay: CellTiter-Glo cell viability, 22Rv1; format: cell-based; conditions: 22Rv1 cells, 72 h with compound
Method: as §1, §2, §3, §4

A2058 = assay: CellTiter-Glo cell viability, A2058; format: cell-based; conditions: A2058 cells, 72 h with compound
Method: as §1, §2, §3, §4

HepG2 = assay: CellTiter-Glo cell viability, HepG2; format: cell-based; conditions: HepG2 cells, 72 h with compound
Method: as §1, §2, §3, §4

[1] = system: A2058 melanoma tumor cells; assay: In vivo tumour inhibition, A2058 melanoma xenograft; parameters: species or system Balb-c/nude mouse; conditions: for T/C / TGI: Example 5, 12 mg/kg, day 20 after treatment start; for activity in inhibiting A2058 melanoma cell line in vivo: nude mouse xenograft model of melanoma
Method: The A2058 tumor cells were maintained in vitro in DMEM medium supplemented with 10% fetal bovine serum and 1% Anti-Anti at 37° C. in an atmosphere of 5% CO2 in air. The tumor cells were routinely subcultured twice weekly.
Each Balb-c/nude mouse was inoculated subcutaneously at the right flank with A2058 melanoma tumor cells (5×10^6+Matrigel) in 0.2 ml of PBS for tumor development. 10 animals per group were randomized when the average tumor volume reached 74 mm^3. Test compounds were prepared as DMSO stocks and diluted in the injection vehicle before administration. The treatment was administered every other day (QOD) as a peritumoral injection. Vehicle composition was 4% DMSO, 5% ethanol, 20% PEG200, 71% saline. Dosing volume for all groups: 5 mL/kg.
Tumor volume was measured twice weekly in two dimensions using a caliper, and the volume was expressed in mm^3 using the formula: V=0.5a×b^2 where a and b are the long and short diameters of the tumor, respectively. The tumor size was then used for calculations of T/C value: The T/C value (in percent) is an indication of antitumor effectiveness; T and Care the mean volumes of the treated and control groups, respectively, on a given day.
One-way ANOVA was performed to compare tumor volume among treated groups and vehicle group, all data were analyzed using GraphPad Prism 5.0. p<0.05 was considered to be statistically significant.

MOLT-4 = assay: CellTiter-Glo cell viability, MOLT-4; format: cell-based; conditions: Homo sapiens; MOLT-4 cells, 72 h with compound
Method: as §1, §2
as §3, with “After 24 h, 10 μl of test compounds or control medium are added, and left on the cells for another 72 h. Compounds were serially diluted in DMSO, transferred in cell culture medium, and added to the assay plates. The DMSO concentration was kept constant at <0.2% v/v across the assay plate.” left out, “Elmer). […]” for “Elmer).”

Raji = assay: CellTiter-Glo cell viability, Raji; format: cell-based; conditions: Homo sapiens; Raji cells, 72 h with compound
Method: as §1, §2
as §3, with “After 24 h, 10 μl of test compounds or control medium are added, and left on the cells for another 72 h. Compounds were serially diluted in DMSO, transferred in cell culture medium, and added to the assay plates. The DMSO concentration was kept constant at <0.2% v/v across the assay plate.” left out, “Elmer). […]” for “Elmer).”

Kelly = assay: CellTiter-Glo cell viability, Kelly; format: cell-based; conditions: Kelly cells, 72 h with compound
Method: as §1, §2, §3, §4

LoVo = assay: CellTiter-Glo cell viability, LoVo; format: cell-based; conditions: LoVo cells, 72 h with compound
Method: as §1, §2
as §3, with “After 24 h, 10 μl of test compounds or control medium are added, and left on the cells for another 72 h. Compounds were serially diluted in DMSO, transferred in cell culture medium, and added to the assay plates. The DMSO concentration was kept constant at <0.2% v/v across the assay plate.” left out, “Elmer). […]” for “Elmer).”

MDA-MB-468 = assay: CellTiter-Glo cell viability, MDA-MB-468; format: cell-based; conditions: MDA-MB-468 cells, 72 h with compound
Method: as §1, §2
as §3, with “After 24 h, 10 μl of test compounds or control medium are added, and left on the cells for another 72 h. Compounds were serially diluted in DMSO, transferred in cell culture medium, and added to the assay plates. The DMSO concentration was kept constant at <0.2% v/v across the assay plate.” left out, “Elmer). […]” for “Elmer).”

H460 = assay: CellTiter-Glo cell viability, H460; format: cell-based; conditions: H460 cells, 72 h with compound
Method: as §1, §2
as §3, with “After 24 h, 10 μl of test compounds or control medium are added, and left on the cells for another 72 h. Compounds were serially diluted in DMSO, transferred in cell culture medium, and added to the assay plates. The DMSO concentration was kept constant at <0.2% v/v across the assay plate.” left out, “Elmer). […]” for “Elmer).”

LNCaP = assay: CellTiter-Glo cell viability, LNCaP; format: cell-based; conditions: LNCaP cells, 72 h with compound
Method: as §1, §2
as §3, with “After 24 h, 10 μl of test compounds or control medium are added, and left on the cells for another 72 h. Compounds were serially diluted in DMSO, transferred in cell culture medium, and added to the assay plates. The DMSO concentration was kept constant at <0.2% v/v across the assay plate.” left out, “Elmer). […]” for “Elmer).”

SMILES	IC50 (MCF-7) [nM]	IC50 (NCI-H1299) [nM]	IC50 (HCC-15) [nM]	IC50 (MIA-PaCa-2) [nM]	IC50 (A-673) [nM]	IC50 (SK-Mel-5) [nM]	IC50 (U87MG) [nM]	IC50 (A375) [nM]	IC50 (SK-N-SH) [nM]	IC50 (H69) [nM]	IC50 (BxPC-3) [nM]	IC50 (22Rv1) [nM]	IC50 (A2058) [nM]	IC50 (HepG2) [nM]	other results
COc1ccc2c(=O)c(-c3ccc(CCCCCC[P+](c4ccccc4)(c4ccccc4)c4ccccc4)cc3)coc2c1OC.[Cl-] [SND477]	210	310	240	200	600	160	320	210	550	230	260	110	240	660	T/C [1]: 35.6%; TGI [1]: 68.7%; activity in inhibiting A2058 melanoma cell line in vivo [1]: significant activity
COc1ccc2c(=O)c(-c3ccc(CCCCCCCC[P+](c4ccccc4)(c4ccccc4)c4ccccc4)cc3)coc2c1OC [SND478]	220	260	220	190	650	150	390	240	490	210	250	170	270	680	–
COc1ccc2c(=O)c(-c3ccc(CCCCCCCCCC[P+](c4ccccc4)(c4ccccc4)c4ccccc4)cc3)coc2c1OC.[Cl-] [SND479]	170	200	190	110	440	110	240	210	210	230	220	170	190	440	T/C [1]: 33.5%; TGI [1]: 70.0%; activity in inhibiting A2058 melanoma cell line in vivo [1]: significant activity
O=c1c(-c2ccc(CCCC[P+](c3ccccc3)(c3ccccc3)c3ccccc3)cc2)coc2c(O)c(O)ccc12 [SND490, (4-(4-(7,8-Dihydroxy-4-oxo-4H-chromen-3-yl)phenyl)butyl)triphenylphosphonium bromide]	–	–	–	–	–	–	–	–	–	–	–	–	–	–	IC50 (MOLT-4): 560 nM; IC50 (A-673; Homo sapiens, A673): 1950 nM
COc1c(O)ccc2c(=O)c(-c3ccc(CCCC[P+](c4ccccc4)(c4ccccc4)c4ccccc4)cc3)coc12 [SND530, (4-(4-(7-Hydroxy-8-methoxy-4-oxo-4H-chromen-3-yl)phenyl)butyl)triphenylphosphonium bromide]	–	–	–	–	–	–	–	–	–	–	–	–	–	–	IC50 (MCF-7; Homo sapiens, MCF7): 1000 nM; IC50 (NCI-H1299; Homo sapiens, NCI-H1299): 1400 nM; IC50 (HCC-15; HCC15): 3700 nM; IC50 (Raji): 140 nM; IC50 (MIA-PaCa-2; Homo sapiens): 1200 nM; IC50 (A-673; Homo sapiens, A673): 500 nM; IC50 (SK-Mel-5; Homo sapiens): 1100 nM; IC50 (U87MG; Homo sapiens, U-87 MG): 1900 nM; IC50 (A375; Homo sapiens, A-375): 1500 nM
COc1ccc2c(=O)c(-c3cccc(CC[P+](c4ccccc4)(c4ccccc4)c4ccccc4)c3)coc2c1OC [SND542]	–	–	1470	430	–	870	–	760	2750	210	1460	800	690	–	IC50 (Kelly): 1710 nM; IC50 (LoVo): 4830 nM; IC50 (MDA-MB-468): 510 nM; IC50 (H460): 1780 nM; IC50 (LNCaP): 690 nM
COc1ccc2c(=O)c(-c3cccc(C[P+](c4ccccc4)(c4ccccc4)c4ccccc4)c3)coc2c1OC [SND543]	–	–	1340	630	–	970	–	1510	3870	970	1810	920	980	–	IC50 (Kelly): 1440 nM; IC50 (MDA-MB-468): 560 nM; IC50 (H460): 2000 nM; IC50 (LNCaP): 680 nM
COc1ccc2c(=O)c(-c3ccc(CC[P+](c4ccccc4)(c4ccccc4)c4ccccc4)cc3)coc2c1OC [SND550]	–	–	–	–	–	–	–	–	–	–	–	–	–	–	IC50 (NCI-H1299; Homo sapiens, NCI-H1299): 1300 nM; IC50 (HCC-15; HCC15): 1300 nM; IC50 (MIA-PaCa-2; Homo sapiens): 4300 nM; IC50 (A375; Homo sapiens, A-375): 920 nM; IC50 (SK-N-SH; Homo sapiens): 3690 nM; IC50 (H69; Homo sapiens, NCI-H69): 680 nM; IC50 (22Rv1; Homo sapiens): 750 nM
